In article PMC3216237 (Environmental science & technology, 2011):

Legend:
[1] = liver of rats treated with Aroclor 1254; cited from earlier work
rat liver microsomes = format: in vitro ADME; conditions: for Enantiomeric fraction (EF) of OH-PCB metabolite: column not specified, microsomal incubation 50 μM PCB, 30 min
Ryanodine receptor (RyR) = conditions: enantiospecific, only this atropisomer active; cited from earlier work

For `Clc1ccc(Cl)c(-c2c(Cl)ccc(Cl)c2Cl)c1` [PCB 95], the “Enantiomeric fraction (EF) in liver” value [1] is listed as 0.63.
In the case of `Oc1cc(Cl)c(Cl)c(-c2cc(Cl)c(Cl)cc2Cl)c1Cl` [5–149], the “Enantiomeric fraction (EF) of OH-PCB metabolite” value (rat liver microsomes) is reported as 0.65.
With `Oc1cc(Cl)c(Cl)c(-c2ccc(Cl)c(Cl)c2Cl)c1Cl` [5′-132] the “Enantiomeric fraction, CB column” value (rat liver microsomes; Cyclosil-B column, analysis conducted at 170 °C, metabolite analysed as MeO-PCB) was 0.31 ^a, ^# and the “Enantiomeric fraction (EF) of OH-PCB metabolite” value (rat liver microsomes) was 0.31.
In the case of `Clc1cc(Cl)c(-c2c(Cl)ccc(Cl)c2Cl)cc1Cl` [PCB 149], the “Enantiomeric fraction (EF) in liver” value [1] is listed as 0.45.
With `Oc1cc(Cl)c(Cl)c(-c2ccc(Cl)cc2Cl)c1Cl` [5–91] the “Enantiomeric fraction (EF) of OH-PCB metabolite” value (rat liver microsomes) was 0.54.
In the case of `Clc1ccc(Cl)c(-c2c(Cl)ccc(Cl)c2Cl)c1Cl` [(-)-PCB 136, 2,2′,3,3′,6,6′-hexachlorobiphenyl], the “Sensitization of RyRs” value (Ryanodine receptor (RyR)) is listed as “active”.
With `Oc1cc(Cl)c(Cl)c(-c2cc(Cl)ccc2Cl)c1Cl` [5–95] the “Enantiomeric fraction (EF) of OH-PCB metabolite” value (rat liver microsomes) was “approximately 0.33”.
